# Source: US20240101599A1, “PEPTIDE, CELL GROWTH PROMOTER, PROTEIN PRODUCTION PROMOTER, CULTURE MEDIUM, CELL GROWTH METHOD USING PEPTIDE, AND PROTEIN PRODUCTION METHOD USING PEPTIDE” (Maruhachi Muramatsu, Inc., priority 2020, published 2024)
# Where two headings read alike, the source gives them in different places. Peptide text beside a SMILES is read from it.
# Key:
# [1] = test system: CHO DP-12; conditions: 5 days; for Viable cell count: n=3; for Amount of protein produced: n=3, ELISA
# Experimental: A cell suspension prepared such that CHO DP-12 (ATCC, Cat. No. CRL-12445) was at 2×10^4 cells/mL was seeded in a 24-well plate at 1×10^4 cells/well (500 μL) and cultured in an incubator at 37° C. and 5% CO2 for 24 hours. As a culture medium, a DMEM basal medium in which 200 nM of methotrexate and 2 μg/mL of insulin were blended in a DMEM culture medium (Gibco) containing 10% FBS was used.
# After removing the culture medium from each well and washing with the DMEM basal medium (500 μL), each peptide solution (500 μL) was dispensed to each well (total 500 μL/well) to perform culture for 5 days.
# After replacing each culture medium with an evaluation medium of the following test section, culture was performed in an incubator at 37° C. and 5% CO2 for 5 days.
# • DMEM basal medium • AGK (1 mM)+DMEM basal medium • AGK (2 mM)+DMEM basal medium • Medium supplemented with vitamins and nucleic acids (DMEM basal medium+vitamin+nucleic acid) • AGK (1 mM)+medium supplemented with vitamins and nucleic acids • AGK (2 mM)+medium supplemented with vitamins and nucleic acids
# After 5 days of culture, the total amount of the culture medium in each well of the 24-well plate was recovered, a centrifugation operation (5,000 rpm, for 5 minutes) was performed, and the supernatant was separately recovered to measure the amount of produced protein by ELISA.
# The cells adhered to the wells after recovering the culture medium were detached by trypsin treatment and suspended again in the DMEM basal medium containing 10% FBS to measure the viable cell count and the viability by a trypan blue staining method using a cell counter.
# [2] = test system: CHO DP-12; test: Cell growth test and protein production test when peptide was added to total synthesis medium; type: cell-based; conditions: for Viability, Average / Viable cell count, Average / Amount of protein produced, Average: average n=3; for Viability, Average / Viable cell count, Average / Amount of protein produced, Average / Viability, 1 / Viable cell count, 1 / Amount of protein produced, 1 / Viability, 2 / Viable cell count, 2 / Amount of protein produced, 2 / Viability, 3 / Viable cell count, 3 / Amount of protein produced, 3: ASF104 basal medium, 5 days; for Amount of protein produced, Average / Amount of protein produced, 1 / Amount of protein produced, 2 / Amount of protein produced, 3: ELISA; for Viability, 1 / Viable cell count, 1 / Amount of protein produced, 1: replicate 1; for Viability, 2 / Viable cell count, 2 / Amount of protein produced, 2: replicate 2; for Viability, 3 / Viable cell count, 3 / Amount of protein produced, 3: replicate 3
# Experimental: A peptide having the sequence of Gly-Glu-Lys (GEK) was synthesized to prepare peptide solutions at the concentrations of 0 mM, 2.6 mM, 5.1 mM, 10 mM, 20.5 mM, and 41 mM, and an amount of 1/10 of the total culture medium volume was added to each well immediately before the cell culture test such that final concentrations were 0 mM, 0.26 mM, 0.51 mM, 1.0 mM, 2.05 mM, and 4.1 mM, respectively. In the present test, CHO DP-12 (ATCC, Cat. No. CRL-12445) acclimated to an ASF104 basal medium in which 200 nM of methotrexate and 2 μg/mL of insulin were blended in an ASF104 culture medium (Ajinomoto Co., Inc.), which is a total synthesis medium for CHO, was used. A cell suspension prepared such that a cell concentration was 4×10^4 cells/mL was seeded in a 24-well plate at 450 μL/well and cultured in an incubator at 37° C. and 5% CO2 for 24 hours. As a culture medium, an ASF104 basal medium in which 200 nM of methotrexate and 2 μg/mL of insulin were blended in an ASF104 culture medium (Ajinomoto Co., Inc.), which is a total synthesis medium for CHO, was used.
# After 24 hours, 50 μL of the prepared peptide solution was added to each well to perform culture for 5 days. The cells were recovered after culture to count the viable cell count.
# • ASF104 basal medium • GEK (0.26 mM)+ASF104 basal medium • GEK (0.51 mM)+ASF104 basal medium • GEK (1.0 mM)+ASF104 basal medium • GEK (2.05 mM)+ASF104 basal medium • GEK (4.1 mM)+ASF104 basal medium
# 100 μL of the culture medium supernatant was collected in a 1.5 mL tube to quantitatively determine the amount of protein produced. The supernatant was diluted to measure the amount of protein produced by ELISA.
# In order to analyze the cells, the culture medium in each well was recovered in a 1.5 mL tube to be rinsed with 200 μL of PBS, and the rinsed liquid was also recovered in the same 1.5 mL tube. Thereafter, 100 μL of 0.25% trypsin/EDTA was added to perform incubation for 1 minute. 100 μL of a trypsin inhibitor was added to recover in the same 1.5 mL tube. After rinsing with 200 μL of PBS to recover the rinsed liquid in the same 1.5 mL tube, a centrifugation operation was performed. Suspension was performed in 100 μL of PBS to measure the viable cell count and the cell viability by a trypan blue staining method using a cell counter.
# The above preparation, culture, and measurement were performed with n=3. Table 28 and FIG. 27 show the viable cell count in each peptide solution, Table 29 and FIG. 28 show the cell viability in each peptide solution, and Table 30 and FIG. 29 show the amount of protein produced.
# [3] = 1 mM AGK + medium supplemented with vitamins and nucleic acids
# [4] = 2 mM AGK + medium supplemented with vitamins and nucleic acids
compound,measurement,setting,value
"C[C@H](N)C(=O)NCC(=O)N[C@@H](CCCCN)C(=O)O [AGK, Ala-Gly-Lys] (H-Ala-Gly-Lys-OH; N-terminus and C-terminus assumed)",Viable cell count,[1]; 1 mM AGK + DMEM basal medium,11.97 ×10^4cells/well
same,Amount of protein produced,[1]; 1 mM AGK + DMEM basal medium,7.5 mg/L
same,Viable cell count,[1]; [3],34.65 ×10^4cells/well
same,Amount of protein produced,[1]; [3],15.74 mg/L
same,Viable cell count,[1]; 2 mM AGK + DMEM basal medium,11.73 ×10^4cells/well
same,Amount of protein produced,[1]; 2 mM AGK + DMEM basal medium,7.4 mg/L
same,Viable cell count,[1]; [4],47.07 ×10^4cells/well
same,Amount of protein produced,[1]; [4],14.34 mg/L
"NCCCC[C@H](NC(=O)[C@H](CCC(=O)O)NC(=O)CN)C(=O)O [GEK, Gly-Glu-Lys] (H-Gly-Glu-Lys-OH; N-terminus and C-terminus assumed)","Viability, Average",[2]; 0.26 mM GEK,97.0%
same,"Viable cell count, Average",[2]; 0.26 mM GEK,1.6 ×10^6 cells/well
same,"Amount of protein produced, Average",[2]; 0.26 mM GEK,12.5 mg/L
same,"Viability, 1",[2]; 0.26 mM GEK,96%
same,"Viable cell count, 1",[2]; 0.26 mM GEK,1.6 ×10^6 cells/well
same,"Amount of protein produced, 1",[2]; 0.26 mM GEK,12.2 mg/L
same,"Viability, 2",[2]; 0.26 mM GEK,99%
same,"Viable cell count, 2",[2]; 0.26 mM GEK,1.5 ×10^6 cells/well
same,"Amount of protein produced, 2",[2]; 0.26 mM GEK,12.6 mg/L
same,"Viability, 3",[2]; 0.26 mM GEK,96%
same,"Viable cell count, 3",[2]; 0.26 mM GEK,1.6 ×10^6 cells/well
same,"Amount of protein produced, 3",[2]; 0.26 mM GEK,12.7 mg/L
same,"Viability, Average",[2]; 0.51 mM GEK,96.7%
same,"Viable cell count, Average",[2]; 0.51 mM GEK,1.6 ×10^6 cells/well
same,"Amount of protein produced, Average",[2]; 0.51 mM GEK,12.9 mg/L
same,"Viability, 1",[2]; 0.51 mM GEK,95%
same,"Viable cell count, 1",[2]; 0.51 mM GEK,1.5 ×10^6 cells/well
same,"Amount of protein produced, 1",[2]; 0.51 mM GEK,12.8 mg/L
same,"Viability, 2",[2]; 0.51 mM GEK,98%
same,"Viable cell count, 2",[2]; 0.51 mM GEK,1.7 ×10^6 cells/well
same,"Amount of protein produced, 2",[2]; 0.51 mM GEK,13.2 mg/L
same,"Viability, 3",[2]; 0.51 mM GEK,97%
same,"Viable cell count, 3",[2]; 0.51 mM GEK,1.6 ×10^6 cells/well
same,"Amount of protein produced, 3",[2]; 0.51 mM GEK,12.6 mg/L
same,"Viability, Average",[2]; 1.0 mM GEK,96.7%
same,"Viable cell count, Average",[2]; 1.0 mM GEK,1.5 ×10^6 cells/well
same,"Amount of protein produced, Average",[2]; 1.0 mM GEK,13.1 mg/L
same,"Viability, 1",[2]; 1.0 mM GEK,97%
same,"Viable cell count, 1",[2]; 1.0 mM GEK,1.3 ×10^6 cells/well
same,"Amount of protein produced, 1",[2]; 1.0 mM GEK,12.4 mg/L
same,"Viability, 2",[2]; 1.0 mM GEK,97%
same,"Viable cell count, 2",[2]; 1.0 mM GEK,1.8 ×10^6 cells/well
same,"Amount of protein produced, 2",[2]; 1.0 mM GEK,12.8 mg/L
same,"Viability, 3",[2]; 1.0 mM GEK,96%
same,"Viable cell count, 3",[2]; 1.0 mM GEK,1.4 ×10^6 cells/well
same,"Amount of protein produced, 3",[2]; 1.0 mM GEK,14.1 mg/L
same,"Viability, Average",[2]; 2.05 mM GEK,96.7%
same,"Viable cell count, Average",[2]; 2.05 mM GEK,1.9 ×10^6 cells/well
same,"Amount of protein produced, Average",[2]; 2.05 mM GEK,17.0 mg/L
same,"Viability, 1",[2]; 2.05 mM GEK,96%
same,"Viable cell count, 1",[2]; 2.05 mM GEK,1.9 ×10^6 cells/well
same,"Amount of protein produced, 1",[2]; 2.05 mM GEK,17.5 mg/L
same,"Viability, 2",[2]; 2.05 mM GEK,96%
same,"Viable cell count, 2",[2]; 2.05 mM GEK,2.2 ×10^6 cells/well
same,"Amount of protein produced, 2",[2]; 2.05 mM GEK,17.7 mg/L
same,"Viability, 3",[2]; 2.05 mM GEK,98%
same,"Viable cell count, 3",[2]; 2.05 mM GEK,1.4 ×10^6 cells/well
same,"Amount of protein produced, 3",[2]; 2.05 mM GEK,15.6 mg/L
same,"Viability, Average",[2]; 4.1 mM GEK,97.0%
same,"Viable cell count, Average",[2]; 4.1 mM GEK,1.7 ×10^6 cells/well
same,"Amount of protein produced, Average",[2]; 4.1 mM GEK,13.3 mg/L
same,"Viability, 1",[2]; 4.1 mM GEK,97%
same,"Viable cell count, 1",[2]; 4.1 mM GEK,1.8 ×10^6 cells/well
same,"Amount of protein produced, 1",[2]; 4.1 mM GEK,13.9 mg/L
same,"Viability, 2",[2]; 4.1 mM GEK,98%
same,"Viable cell count, 2",[2]; 4.1 mM GEK,1.8 ×10^6 cells/well
same,"Amount of protein produced, 2",[2]; 4.1 mM GEK,13.2 mg/L
same,"Viability, 3",[2]; 4.1 mM GEK,96%
same,"Viable cell count, 3",[2]; 4.1 mM GEK,1.5 ×10^6 cells/well
same,"Amount of protein produced, 3",[2]; 4.1 mM GEK,12.8 mg/L
same,amount of protein produced as compared to the basal medium (total synthesis medium),[2]; in words,the amount of protein produced also tended to increase
same,cell viability as compared to the basal medium (total synthesis medium),[2]; in words,the cell viability was similarly high
same,viable cell count as compared to the basal medium (total synthesis medium),[2]; in words,the viable cell count increased
